Test systems include Kleb. pneumo. SK4200; Kleb. pneumo. SK1200; Pseudo aeruginosa HH63; Serratia marc. ATCC13880; Proteus morgani 179.
Test in all cases: MIC, standard agar inclusion method
Holding throughout (assay type): cell-based

The test system of the next assay is S. aureus HH127. The following applies: Staphylococcus aureus.
In a further assay the test system is S. aureus SK23390. Particulars: Staphylococcus aureus.
Another assay relates to S. aureus Villaluz. Particulars: Staphylococcus aureus.
The next assay relates to Strep. faecalis HH34358. The following applies: Enterococcus faecalis.
The next assay concerns E. coli SK12140. The following applies: Escherichia coli.
A further assay deals with E. coli HH33779. The following applies: Escherichia coli.
Assay [1] concerns Salmonella paratuphi ATCC12176.
Assay [2] concerns Shegella paradysenteriae HH117.
The next assay has as its system Entero. aerogenes 13048. The following applies: Klebsiella aerogenes.
A further assay deals with Entero. cloacae HH31254. Particulars: Enterobacter cloacae.
The mark [3] stands for this setting: Entero. aerogenes 13048, agar inclusion, read-out: MIC.
The mark [4] stands for this setting: Entero. cloacae HH31254, agar inclusion, read-out: MIC.

In brackets after ≈: the same amount, converted by molar mass. Where two headings read alike, the source gives them in different places. A value given as a limit tells only on which side of the number the result lay.

Regarding `CSSCC(=O)NC1C(=O)N2C(C(=O)O)=C(CSc3nnnn3C)CSC12` (stereo not drawn) [A, 7-methyldithioacetamido-3-(1-methyltetrazol-5-yl-thiomethyl)-3-cephem-4-carboxylic acid], the MIC (as a rule, the least concentration at which growth counts as inhibited) against S. aureus HH127 turned out to be 0.4 µg/mL (≈ 0.892 µM); against S. aureus SK23390, 0.4 µg/mL (≈ 0.892 µM); with S. aureus Villaluz, 6.3 µg/mL (≈ 14 µM); against Strep. faecalis HH34358, 12.5 µg/mL (≈ 27.9 µM); with E. coli SK12140 it was 3.1 µg/mL (≈ 6.91 µM); against E. coli HH33779, 6.3 µg/mL (≈ 14 µM). For the same compound, the MIC against Kleb. pneumo. SK4200 is 3.1 µg/mL (≈ 6.91 µM); against Kleb. pneumo. SK1200, 0.8 µg/mL (≈ 1.78 µM); in assay [1] it was 0.8 µg/mL (≈ 1.78 µM); in [2] it was 0.8 µg/mL (≈ 1.78 µM); with Pseudo aeruginosa HH63 it was more than 200 µg/mL; in the assay with Serratia marc. ATCC13880, more than 200 µg/mL. The results for the minimal inhibitory concentration (MIC) in the assay with Proteus morgani 179, in the assay on Entero. aerogenes 13048 (setting [3]) and in the assay with Entero. cloacae HH31254 (setting [4]) were more than 200 µg/mL, 3.1 µg/mL (≈ 6.91 µM) and 1.6 µg/mL (≈ 3.57 µM), respectively.
As to `CSSCC(=O)NC1C(=O)N2C(C(=O)O)=C(COC(C)=O)CSC12` (stereo not drawn) [D, 7-(methyldithioacetamido)-cephalosporanic acid], the MIC against S. aureus HH127 came to 0.2 µg/mL (≈ 0.51 µM); against S. aureus SK23390 it was 0.2 µg/mL (≈ 0.51 µM); in the assay with S. aureus Villaluz, 3.1 µg/mL (≈ 7.9 µM); in the assay on Strep. faecalis HH34358, 12.5 µg/mL (≈ 31.8 µM); in the assay with E. coli SK12140, 6.3 µg/mL (≈ 16.1 µM); in the assay on E. coli HH33779, 12.5 µg/mL (≈ 31.8 µM). Also, the MIC against Kleb. pneumo. SK4200 is 3.1 µg/mL (≈ 7.9 µM); in the assay with Kleb. pneumo. SK1200, 3.1 µg/mL (≈ 7.9 µM); in assay [1] it was 6.3 µg/mL (≈ 16.1 µM); in assay [2], 1.6 µg/mL (≈ 4.08 µM); in the assay with Pseudo aeruginosa HH63, more than 200 µg/mL; in the assay on Serratia marc. ATCC13880 it was more than 200 µg/mL. The MIC against Proteus morgani 179 is more than 200 µg/mL; in the assay with Entero. aerogenes 13048 (setting [3]), 25 µg/mL (≈ 63.7 µM); with Entero. cloacae HH31254 (setting [4]), 25 µg/mL (≈ 63.7 µM).
Regarding `Cn1nnnc1SCC1=C(C(=O)O)N2C(=O)C(NC(=O)CSSC(F)(F)F)C2SC1` (stereo not drawn) [C], the MIC in the assay on S. aureus HH127 amounted to 3.1 µg/mL (≈ 6.17 µM); in the assay with S. aureus SK23390, 3.1 µg/mL (≈ 6.17 µM); in the assay with S. aureus Villaluz, 6.3 µg/mL (≈ 12.5 µM); against Strep. faecalis HH34358 it was 50 µg/mL (≈ 99.5 µM); with E. coli SK12140 it was 12.5 µg/mL (≈ 24.9 µM); in the assay with E. coli HH33779, 25 µg/mL (≈ 49.7 µM). Also, the MIC against Kleb. pneumo. SK4200 is 6.3 µg/mL (≈ 12.5 µM); against Kleb. pneumo. SK1200 it was 3.1 µg/mL (≈ 6.17 µM); in assay [1], 6.3 µg/mL (≈ 12.5 µM); in assay [2], 3.1 µg/mL (≈ 6.17 µM); with Pseudo aeruginosa HH63 it was more than 100 µg/mL; with Serratia marc. ATCC13880, more than 100 µg/mL. Further, the MIC in the assay on Proteus morgani 179 (Proteus morgani 179, agar inclusion, read-out: MIC) was more than 100 µg/mL; with Entero. aerogenes 13048 (setting [3]), 100 µg/mL (≈ 199 µM); in the assay with Entero. cloacae HH31254 (setting [4]), 12.5 µg/mL (≈ 24.9 µM).
Take `Cc1nnc(SCC2=C(C(=O)O)N3C(=O)[C@@H](NC(=O)Cn4cnnn4)[C@H]3SC2)s1` [Cefazolin, reference compound]: the minimal inhibitory concentration (MIC) amounted to 0.4 µg/mL (≈ 0.88 µM) against S. aureus HH127; 0.4 µg/mL (≈ 0.88 µM) in the assay with S. aureus SK23390; 25 µg/mL (≈ 55 µM) in the assay with S. aureus Villaluz; 6.3 µg/mL (≈ 13.9 µM) against Strep. faecalis HH34358; 1.6 µg/mL (≈ 3.52 µM) against E. coli SK12140; 3.1 µg/mL (≈ 6.82 µM) in the assay on E. coli HH33779. Also, the MIC against Kleb. pneumo. SK4200 was 3.1 µg/mL (≈ 6.82 µM); in assay [1], 1.6 µg/mL (≈ 3.52 µM); in assay [2] it was 0.8 µg/mL (≈ 1.76 µM); with Pseudo aeruginosa HH63, more than 200 µg/mL; in the assay on Serratia marc. ATCC13880, more than 200 µg/mL; against Proteus morgani 179 it was more than 200 µg/mL. In the assay on Entero. aerogenes 13048 (13048), this compound came in with an MIC of 1.6 µg/mL (≈ 3.52 µM).
On to `Cn1nnnc1SCC1=C(C(=O)O)N2C(=O)C(NC(=O)CSSC(Cl)(Cl)Cl)C2SC1` (stereo not drawn) [B, 7-(trichloromethyldithioacetamido)-3-(1-methyltetrazol-5-ylthiomethyl)-3-cephem-4-carboxylic acid], for which the MIC is 3.1 µg/mL (≈ 5.62 µM) with S. aureus HH127; 3.1 µg/mL (≈ 5.62 µM) in the assay with S. aureus SK23390; 50 µg/mL (≈ 90.6 µM) with S. aureus Villaluz; 50 µg/mL (≈ 90.6 µM) in the assay with Strep. faecalis HH34358; 12.5 µg/mL (≈ 22.6 µM) against E. coli SK12140; 100 µg/mL (≈ 181 µM) against E. coli HH33779. The MIC is 6.3 µg/mL (≈ 11.4 µM) with Kleb. pneumo. SK1200; 6.3 µg/mL (≈ 11.4 µM) in [1]; 12.5 µg/mL (≈ 22.6 µM) in assay [2]; more than 200 µg/mL with Pseudo aeruginosa HH63; more than 200 µg/mL against Serratia marc. ATCC13880; more than 200 µg/mL against Proteus morgani 179. For the same compound, the MIC with Entero. aerogenes 13048 (setting [3]) turned out to be 100 µg/mL (≈ 181 µM); in the assay with Entero. cloacae HH31254 (HH31254) it was 12.5 µg/mL (≈ 22.6 µM).

The values above are taken from patent US4137314A, “7-Dithioacetamido cephalosporins and pharmaceutical compositions and methods employing them having antibacterial activity” (SmithKline Corporation, priority 1977, dated 1979).
